The record followed here is patent publication US7855192B2, “Macrolactams by engineered biosynthesis” (Kosan Biosciences, Inc., priority 2007, dated 2010).

One test relates to Hsp70. The experiment in a line: Induction of Hsp70 in SKBr3 cells as marker of Hsp90 inhibition. Format: cell-based, human. As to conditions: SKBr3 cells continuously exposed to 1 μM test compound. An excerpt: The activity of macrolactams of this invention as Hsp90 inhibitors was confirmed by monitoring the effect of exposure to them on an Hsp90 client protein and a protein induced upon Hsp90 inhibition. […]. The procedure used was that described in Munster et al., Cancer Research 2002, 62, 3132-3137.
[…]. Heat shock protein-70 (“Hsp70”), another protein that performs a chaperone function, is a protein that is induced upon inhibition of Hsp90 (Brodsky & Chiosis, Curr. Topics Med. Chem. 2006, 6 (11), 1215-1225). Thus, the induction of Hsp70 can be used as a marker for the inhibition of Hsp90. […]. GAPDH is an enzyme involved in glycolysis and is expressed constitutively in all cells and is a marker of choice as a loading control in Western Blotting experiments.)

Test [1] relates to SKBr3 and MCF7 cancer cells. As to conditions: with versus without dicoumarol (NQO1 inhibitor).
A further test deals with K-562. The experiment in a line: cells. As to conditions: Homo sapiens, K562, read-out: Inhibitory activity against cancer cells IC50. The procedure:
(§1) The ability of the macrolactams of this invention to inhibit the growth of cancer cells was evaluated using the procedure of Patel, supra. […] SKOV3 is a human ovarian cancer cell line. […] MV-4-11 is yet another human leukemia cell line (acute myeloid leukemia or AML). […] Where an assay was performed multiple times, the range of values measured is given.

A further test has as its system MX-1. The test can be described thus: cells. As to conditions: Homo sapiens, MX1, read-out: Inhibitory activity against cancer cells IC50. As for the experimental part: as §1
For a further test, the system named is SKOV3. The test can be described thus: cells. As to conditions: Homo sapiens, SK-OV-3, read-out: Inhibitory activity against cancer cells IC50. The procedure:
as §1

Another test concerns MCF-7. The test can be described thus: cells. Conditions: Homo sapiens. As for the experimental part: as §1
For the next test, the system named is RPMI-8226. The test can be described thus: cells. As to conditions: Homo sapiens, RPMI-8226, read-out: Inhibitory activity against cancer cells IC50. As for the experimental part: as §1
The subject of the next test is SKBr3. The test can be described thus: cells. As to conditions: Homo sapiens. As for the experimental part:
as §1

The test system of another test is NCI-ADR. The test can be described thus: cells. As to conditions: Homo sapiens, NCI/ADR-RES, read-out: Inhibitory activity against cancer cells IC50. The procedure:
as §1

For a further test, the system named is BT-474. The experiment in a line: cells. As to conditions: Homo sapiens, BT-474, read-out: Inhibitory activity against cancer cells IC50. As for the experimental part:
as §1

The next test concerns MDA-468. The test can be described thus: cells. Conditions: read-out: Inhibitory Concentration IC50, NQO1 deficient cancer cells. The procedure:
as §1
(§2) As noted above, geldanamycin derivatives in the quinone oxidation state are dependent on the enzyme NQO1 to reduce them to their hydroquinone derivatives for enhanced activity as Hsp90 inhibitors. However, some cancer cells are deficient in NQO1 activity and thus unable to effect the quinone-to-hydroquinone conversion.

A further test concerns HCT-116. The test can be described thus: cells. As to conditions: Homo sapiens, HCT-116, read-out: Inhibitory activity against cancer cells IC50. As for the experimental part: as §1
The subject of a further test is MV-4-11. The test can be described thus: cells. As to conditions: Homo sapiens, MV4-11, read-out: Inhibitory activity against cancer cells IC50. As for the experimental part: as §1
The subject of the next test is COLO 205. The experiment in a line: cells. Conditions: Homo sapiens, COLO 205, read-out: Inhibitory activity against cancer cells IC50. As for the experimental part:
as §1

For another test, the system named is HT-29. The experiment in a line: cells. As to conditions: Homo sapiens, HT-29, read-out: Inhibitory activity against cancer cells IC50. The procedure: as §1
Another test relates to NCI-H596. The test can be described thus: cells. Conditions: Homo sapiens, NCI-H596, read-out: Inhibitory Concentration IC50, NQO1 deficient cancer cells. The procedure: as §1, §2
Setting [2] is: MCF7, read-out: Inhibitory activity against cancer cells IC50.
Setting [3] is: SK-BR-3, read-out: Inhibitory Activity IC50, no dicoumarol added.
[4] abbreviates: SK-BR-3, read-out: Inhibitory activity against cancer cells IC50.

Where two headings read alike, the source gives them in different places.

Consider `C=CCNC1=C2C[C@@H](C)C[C@H](OC)[C@H](O)[C@@H](C)/C=C(\C)[C@H](OC(N)=O)[C@@H](OC)/C=C\C=C(/C)C(=O)NC(=CC1=O)C2=O` [Compound 17-AAG, 17-allylamino-17-demethoxygeldanamycin, reference compound], for which the “Induction of Hsp70, gel picture FIG. 5” value with Hsp70 is reported as “Hsp70 was induced”.
As for `CO[C@H]1C[C@H](C)Cc2cc(cc(Cl)c2O)NC(=O)/C(C)=C/CC[C@H](OC)[C@@H](OC(N)=O)/C(C)=C/[C@H](C)[C@H]1O` [III-a], the “Change of Hsp90 inhibitory activity in the presence of dicoumarol” value in test [1] was “remained substantially unchanged”. The IC50 in the test on K-562 is 74 nM; in the test with MX-1, 42 nM; in the test on SKOV3, 102 to 170 nM; in the test on MCF-7 (setting [2]) it was 53 to 60 nM; with RPMI-8226, 42 nM; in the test with SKBr3 (setting [3]), 39 nM. Also, the IC50 with SKBr3 (setting [4]) is 36 to 145 nM; in the test with NCI-ADR it was 640 to 1400 nM; with BT-474, 57 nM; with MDA-468 it was 90 nM. The “Induction of Hsp70, gel picture FIG. 5” value in the test on Hsp70 is recorded as “Hsp70 was induced”.
`COC1CC/C=C(\C)C(=O)Nc2cc(F)c(O)c(c2)C[C@@H](C)C[C@H](OC)[C@H](O)[C@@H](C)/C=C(\C)[C@@H]1OC(N)=O` (stereo partly drawn) [III-d]: the “Change of Hsp90 inhibitory activity in the presence of dicoumarol” value in test [1] is recorded as “remained substantially unchanged”. The IC50 was 290 nM in the test with K-562; 280 to 290 nM in the test with HCT-116; 31 to 32 nM with MV-4-11; 66 nM in the test with MX-1; 230 to 237 nM with SKOV3; 161 nM with MCF-7 (MCF7, read-out: Inhibitory Activity IC50, dicoumarol added). The IC50 with MCF-7 (MCF7, read-out: Inhibitory Activity IC50, no dicoumarol added) was 112 nM; in the test on MCF-7 (setting [2]) it was 73 to 160 nM; with COLO 205, 38 nM; with RPMI-8226, 66 nM; with SKBr3 (SK-BR-3, read-out: Inhibitory Activity IC50, dicoumarol added) it was 69 nM; in the test on SKBr3 (setting [3]), 42 nM. Besides, the IC50 in the test with SKBr3 (setting [4]) was 34 to 80 nM; in the test on NCI-ADR, 3200 to 5000 nM; in the test with BT-474, 80 nM; in the test with HT-29 it was 110 nM; in the test on NCI-H596 it was 310 nM; with MDA-468 it was 100 nM. The “Induction of Hsp70, gel picture FIG. 5” value in the test with Hsp70 is given as “Hsp70 was induced”.
Regarding `CO[C@H]1C[C@H](C)Cc2cccc(c2)NC(=O)/C(C)=C/CC[C@H](OC)[C@@H](OC(N)=O)/C(C)=C/[C@H](C)[C@H]1O` [III-h], the IC50 in the test with HCT-116 is 240 to 242 nM; with SKOV3 it was 318 nM; with MCF-7 (setting [2]) it was 138 to 140 nM; in the test on COLO 205 it was 180 nM; in the test with SKBr3 (setting [4]), 90 to 110 nM; in the test with HT-29 it was 220 nM.
As to `CO[C@H]1C[C@H](C)Cc2cc(ccc2O)NC(=O)/C(C)=C/CC[C@H](OC)[C@@H](OC(N)=O)/C(C)=C/[C@H](C)[C@H]1O` [III-i], the figures for the IC50 in the test on HCT-116, in the test with MCF-7 (setting [2]) and in the test on SKBr3 (setting [4]) were 1100 nM, 600 nM and 830 nM, respectively.
Consider `CO[C@H]1/C=C\C=C(/C)C(=O)Nc2ccc(O)c(c2)C[C@@H](C)C[C@H](OC)[C@H](O)[C@@H](C)/C=C(\C)[C@@H]1OC(N)=O` [IV-a], for which the results for the IC50 in the test with HCT-116 and in the test on SKBr3 (setting [4]) were 177 nM and 90 nM, respectively.
As for `CO[C@H]1/C=C\C=C(/C)C(=O)Nc2cc(Cl)c(O)c(c2O)C[C@@H](C)C[C@H](OC)[C@H](O)[C@@H](C)/C=C(\C)[C@@H]1OC(N)=O` [IV-b], the IC50 in the test with K-562 was 1400 nM; in the test on HCT-116, 840 nM; with MX-1, 440 nM; with SKOV3, 340 to 360 nM; with RPMI-8226 it was 240 nM; with SKBr3 (setting [4]), 400 to 444 nM. In addition, the IC50 was 10000 nM with NCI-ADR, 140 nM with BT-474, 815 nM in the test with NCI-H596 and 450 nM with MDA-468.
